Like-named read-outs stand apart in the source and are kept apart here.
Key:
[1] = IAM chromatography membrane affinity (κ′) on esterIAM.PE C10/C3 column; conditions: for LOG PE (log κ′ on esterIAM.PE C10/C3): 15% acetonitrile in 0.01M PBS buffer (pH 7.4) mobile phase
[2] = Prediction of clearance from IAM membrane affinity standard curve; design: species or system human; conditions: Table 4; predicted using IAM k′ data
[3] = cited from earlier work; for Vd Observed: Table 2, 70-kg patient assumed; for Volume of Distribution (Ref.) category in brackets: class of the reference value
plasma proteins [4] = conditions: cited from earlier work; for Protein Binding Observed: Table 3
[5] = cited from earlier work; for total body clearance Observed: Table 4; for Clearance (Ref.): Table 5, Study 1, category
[6] = IAM chromatography membrane affinity (κ′) on esterIAM.PS C10/C3 column; conditions: for Log PS (log κ′ on esterIAM.PS C10/C3): 15% acetonitrile in 0.01M PBS buffer (pH 7.4) mobile phase
plasma proteins [7] = assay: Prediction of protein binding from IAM membrane affinity standard curve; design: species or system human; conditions: Table 3; predicted using IAM k′ data (FIG. 20)
[8] = Prediction of volume of distribution from IAM membrane affinity standard curve; conditions: Table 2; predicted using IAM k′ data (FIG. 19)
[9] = known ADME properties of the parent compound
[10] = column volumes of mobile phase needed to elute

Nc1nc2c(ncn2COCCO)c(=O)[nH]1 [Acyclovir]
LOG PE (log κ′ on esterIAM.PE C10/C3) [1]: −1.17

COc1ccc([C@@H]2Sc3ccccc3N(CCN(C)C)C(=O)[C@@H]2OC(C)=O)cc1 [Diltiazem]
total body clearance Predicted [2]: HIGH > 0.327 (HIGH > 0.327) | Vd Observed [3]: 217 L | Protein Binding Observed (plasma proteins [4]): 78 | total body clearance Observed [5]: 0.84 | Log PS (log κ′ on esterIAM.PS C10/C3) [6]: 2.54 | LOG PE (log κ′ on esterIAM.PE C10/C3) [1]: 1.87

Nc1nnc(-c2cccc(Cl)c2Cl)c(N)n1 [Lamotrigine]
total body clearance Predicted [2]: LOW < 0.327 (LOW < 0.327) | Vd Observed [3]: 91 L | Protein Binding Observed (plasma proteins [4]): 55 | Log PS (log κ′ on esterIAM.PS C10/C3) [6]: 0.96

Fc1ccc([C@@H]2CCNC[C@H]2COc2ccc3c(c2)OCO3)cc1 [Paroxetine]
Protein Binding Predicted (plasma proteins [7]): Greater than 90 | total body clearance Predicted [2]: HIGH > 0.327 (HIGH > 0.327) | Vd Observed [3]: 1190 L | Protein Binding Observed (plasma proteins [4]): 95 | total body clearance Observed [5]: 0.602 | Log PS (log κ′ on esterIAM.PS C10/C3) [6]: 3.37 | LOG PE (log κ′ on esterIAM.PE C10/C3) [1]: 2.33

CNC(=C[N+](=O)[O-])NCCSCc1ccc(CN(C)C)o1 [Ranitidine]
Vd Observed [3]: 91 L | Protein Binding Observed (plasma proteins [4]): 15 | Log PS (log κ′ on esterIAM.PS C10/C3) [6]: 0.83 | LOG PE (log κ′ on esterIAM.PE C10/C3) [1]: 0.15

CCCN(CCC)CCc1cccc2c1CC(=O)N2 [Ropinirole]
Protein Binding Predicted (plasma proteins [7]): 40-90 | total body clearance Predicted [2]: HIGH > 0.327 (HIGH > 0.327) | Vd Observed [3]: 525 L | Protein Binding Observed (plasma proteins [4]): 68 | Vd Predicted [8]: VERY HIGH (>250 L) (VERY HIGH (>250 L))

CCCC(=O)Nc1ccc(OCC(O)CNC(C)C)c(C(C)=O)c1 (stereo not shown) [acebutolol]
Volume of Distribution (L) (Ref.) ([3]; Table 6, Study 2): 84 L

O=C1CN=C(c2ccccc2Cl)c2cc([N+](=O)[O-])ccc2N1 [clonazepam]
Volume of Distribution (L) (Ref.) ([3]; Table 5, Study 1): 210 L | Vd [3, 9]: 224 L | % Protein Binding (Ref.) (plasma proteins [4]; Table 5, Study 1): 86% | Protein binding (plasma proteins [4]; [9]): 86% | Clearance (Ref.) [5]: low | CL [5, 9]: 0.109 L/min

O=C(NCC1CCCCN1)c1cc(OCC(F)(F)F)ccc1OCC(F)(F)F (stereo not shown) [flucainide]
Volume of Distribution (L) (Ref.) ([3]; Table 6, Study 2): 343 L | % Protein Binding (Ref.) (plasma proteins [4]; Table 6, Study 2): 61%

CN1C(=O)CN=C(c2ccccc2F)c2cc([N+](=O)[O-])ccc21 [flunitrazepam]
% Protein Binding (Ref.) (plasma proteins [4]; Table 5, Study 1): 77%

CNCCC(Oc1ccc(C(F)(F)F)cc1)c1ccccc1 (stereo not shown) [fluoxetine]
Volume of Distribution (L) (Ref.) ([3]; Table 6, Study 2): 2450 L | % Protein Binding (Ref.) (plasma proteins [4]; Table 6, Study 2): 94%

CC(CCc1ccccc1)NCC(O)c1ccc(O)c(C(N)=O)c1 (stereo not shown) [labetalol]
% Protein Binding (Ref.) (plasma proteins [4]; Table 6, Study 2): 50%

O=C1Nc2ccc(Cl)cc2C(c2ccccc2Cl)=NC1O (stereo not shown) [lorazepam]
Volume of Distribution (L) (Ref.) ([3]; Table 5, Study 1): 91 L | Volume of Distribution (Ref.) category in brackets ([3]; Table 5, Study 1): (high) (“high” (70-250 L)) | Clearance (Ref.) [5]: low

COCCc1ccc(OCC(O)CNC(C)C)cc1 (stereo not shown) [metoprolol]
Volume of Distribution (L) (Ref.) ([3]; Table 6, Study 2): 294 L

Cc1cccc(C)c1OCC(C)N (stereo not shown) [mexiletine]
Volume of Distribution (L) (Ref.) ([3]; Table 6, Study 2): 343 L | % Protein Binding (Ref.) (plasma proteins [4]; Table 6, Study 2): 63%

CC(C)(C)NCC(O)COc1cccc2c1CC(O)C(O)C2 (stereo not shown) [nadolol]
Volume of Distribution (L) (Ref.) ([3]; Table 6, Study 2): 133 L | % Protein Binding (Ref.) (plasma proteins [4]; Table 6, Study 2): 20%

O=C1CN=C(c2ccccc2)c2cc([N+](=O)[O-])ccc2N1 [nitrazepam]
Volume of Distribution (L) (Ref.) ([3]; Table 5, Study 1): 133 L | Volume of Distribution (Ref.) category in brackets ([3]; Table 5, Study 1): (high) (“high” (70-250 L)) | Clearance (Ref.) [5]: low

CCCCC1C(=O)N(c2ccccc2)N(c2ccccc2)C1=O [phenylbutazone]
Volume of Distribution (L) (Ref.) ([3]; Table 6, Study 2): 7 L

CC(C)NCC(O)COc1cccc2ccccc12 (stereo not shown) [propranolol]
Volume of Distribution (L) (Ref.) ([3]; Table 6, Study 2): 301 L

CC(C)(C)NCC(O)c1cc(O)cc(O)c1 (stereo not shown) [terbutaline]
Volume of Distribution (L) (Ref.) ([3]; Table 6, Study 2): 126 L | % Protein Binding (Ref.) (plasma proteins [4]; Table 6, Study 2): 20%

COc1cc(Cc2cnc(N)nc2N)cc(OC)c1OC [trimethoprim]
κ′ on the esterIAM.PS C10/C3 column [6, 10]: 10 | affinity for the esterIAM.PS C10/C3 column compared to the esterIAM.PE column ([6]; ratio of κ′ PS / κ′ PE): ~5 times | κ′ on the esterIAM.PE C10/C3 column [1, 10]: 2
